Measurements reported in US7767659B2, “Synthesis of naturally occurring ecteinascidins and related compounds” (Pharma Mar, S.A., priority 2002, dated 2010).

Key:
[1] = tested on: HT-29; assay: cells; details: Homo sapiens, HT-29, 48 h
Procedure: (§1) This form of the assay employs 96 well cell culture microplates of 9 mm diameter (Faircloth, 1988; Mosmann, 1983). Most of the cell lines are obtained from American Type Culture Collection (ATCC) derived from different human cancer types.
(§2) Cells are maintained in RPMI 1640 10% FBS, supplemented with 0.1 g/l penicillin and 0.1 g/l streptomycin sulfate and then incubated at 37° C., 5% CO2 and 98% humidity. For the experiments, cells were harvested from subconfluent cultures using trypsin and resuspended in fresh medium before plating.
(§3) Cells are seeded in 96 well microtiter plates, at 5×10^3 cells per well in aliquots of 195 μl medium, and they are allowed to attach to the plate surface by growing in drug free medium for 18 hours. Afterward, samples are added in aliquots of 5 μl in a ranging from 10 to 10^−8 μg/ml, dissolved in DMSO/EtOH/PBS (0.5:0.5:99). After 48 hours exposure, the antitumor effect are measured by the SRB methodology: cells are fixed by adding 50 μl of cold 50% (wt/vol) trichloroacetic acid (TCA) and incubating for 60 minutes at 4° C. Plates are washed with deionized water and dried. One hundred μl of SRB solution (0.4% wt/vol in 1% acetic acid) is added to each microtiter well and incubated for 10 minutes at room temperature. Unbound SRB is removed by washing with 1% acetic acid. Plates are air dried and bound stain is solubilzed with Tris buffer. Optical densities are read on a automated spectrophotometric plate reader at a single wavelength of 490 nm.
(§4) The values for mean +/− SD of data from triplicate wells are calculated. Some parameters for cellular responses can be calculated: GI=growth inhibition, TGI=total growth inhibition (cytostatic effect) and LC=cell killing (cytotoxic effect).

[2] = tested on: A-549; assay: cells; details: Homo sapiens, A549, 48 h
Procedure: as §1, §2, §3, §4

[3] = tested on: LoVo; assay: cells; details: Homo sapiens, LoVo, 48 h
Procedure: as §1, §2, §3, §4

[4] = tested on: SK-BR-3; assay: Inhibition of cells growth by colorimetric assay (SRB); details: Homo sapiens, SK-BR-3, 48 h
Procedure: as §1, §2, §3, §4

[5] = tested on: HeLa-APL; assay: as above; details: Homo sapiens, 48 h
Procedure: as §1, §2, §3, §4

[6] = tested on: SK-MEL-28; assay: as above; details: Homo sapiens, SK-MEL-28, 48 h
Procedure: as §1, §2, §3, §4

[7] = tested on: PANC-1; assay: as above; details: Homo sapiens, PANC-1, 48 h
Procedure: as §1, §2, §3, §4

[8] = tested on: LoVo-Dox; assay: as above; details: Homo sapiens, 48 h
Procedure: as §1, §2, §3, §4

[9] = tested on: LNCaP; assay: as above; details: Homo sapiens, LNCaP, 48 h
Procedure: as §1, §2, §3, §4

[10] = tested on: K-562; assay: as above; details: Homo sapiens, K562, 48 h
Procedure: as §1, §2, §3, §4

[11] = tested on: DU-145; assay: as above; details: Homo sapiens, DU-145, 48 h
Procedure: as §1, §2, §3, §4

[12] = tested on: IGROV-1; assay: as above; details: Homo sapiens, IGROV-1, 48 h
Procedure: as §1, §2, §3, §4

[13] = tested on: HeLa; assay: as above; details: Homo sapiens, HeLa, 48 h
Procedure: as §1, §2, §3, §4

## CCC(=O)NC1CS[C@@H]2c3c(OC(C)=O)c(C)c4c(c3[C@H](COC1=O)N1C2[C@@H]2N[C@@H](Cc3cc(C)c(OC)c(O)c32)[C@@H]1C#N)OCO4 (stereo partly drawn) [compound 33]
[1]; read-out: GI50 HT29
  GI50: 0.0173 µM
[1]; read-out: LC50 HT29
  CC50: 9.81 µM
[1]; read-out: TGI HT29
  IC (TGI): 0.271 µM
[2]; read-out: GI50 A549
  GI50: 0.0262 µM
[2]; read-out: LC50 A549
  CC50: 0.149 µM
[2]; read-out: TGI A549
  IC (TGI): 0.0624 µM
[3]; read-out: LOVO GI50
  GI50: 0.0199 µM
[3]; read-out: LOVO LC50
  CC50: 0.145 µM
[3]; read-out: LOVO TGI
  IC (TGI): 0.0536 µM
[4]; read-out: SK-BR3 GI50
  GI50: 0.00483 µM
[4]; read-out: SK-BR3 LC50
  CC50: 0.385 µM
[4]; read-out: SK-BR3 TGI
  IC (TGI): 0.0139 µM
[5]; read-out: HELA-APL GI50
  GI50: 0.00524 µM
[5]; read-out: HELA-APL LC50
  CC50: 0.115 µM
[5]; read-out: HELA-APL TGI
  IC (TGI): 0.0191 µM
[6]; read-out: GI50 MEL-28
  GI50: 0.0128 µM
[6]; read-out: LC50 MEL-28
  CC50: 0.0979 µM
[6]; read-out: TGI MEL-28
  IC (TGI): 0.0367 µM
[7]; read-out: PANC-1 GI50
  GI50: 0.0199 µM
[7]; read-out: PANC-1 LC50
  CC50: 4.51 µM
[7]; read-out: PANC-1 TGI
  IC (TGI): 0.122 µM
[8]; read-out: LOVO-DOX GI50
  GI50: 0.367 µM
[8]; read-out: LOVO-DOX LC50
  CC50: 5.9 µM
[8]; read-out: LOVO-DOX TGI
  IC (TGI): 0.94 µM
[9]; read-out: GI50 LNCAP
  GI50: 0.00286 µM
[9]; read-out: LC50 LNCAP
  CC50: 0.0111 µM
[9]; read-out: TGI LNCAP
  IC (TGI): 0.00564 µM
[10]; read-out: K562 GI50
  GI50: 0.00549 µM
[10]; read-out: K562 LC50
  CC50: 2.83 µM
[10]; read-out: K562 TGI
  IC (TGI): 0.159 µM
[11]; read-out: GI50 DU145
  GI50: 0.00802 µM
[11]; read-out: LC50 DU145
  CC50: 4.41 µM
[11]; read-out: TGI DU145
  IC (TGI): 0.0156 µM
[12]; read-out: IGROV GI50
  GI50: 0.0985 µM
[12]; read-out: IGROV LC50
  CC50: 1.58 µM
[12]; read-out: IGROV TGI
  IC (TGI): 0.426 µM
[13]; read-out: HELA GI50
  GI50: 0.00502 µM
[13]; read-out: HELA LC50
  CC50: 0.0969 µM
[13]; read-out: HELA TGI
  IC (TGI): 0.0161 µM
